In patent US8716355B2, “Hydroxylated tolans and related compounds in the treatment of a cancer” (Kent State University, priority 2007, dated 2014):
Like-named read-outs stand apart in the source and are kept apart here.

Experiments:
[1] = tested on: WiDR; test: MTT cytotoxicity, WiDR colon; format: cell-based; details: Homo sapiens, 72 h, 3 Days, read-out: CD50 (μM) WiDR
Protocol: (§1) Cell killing was evaluated using the colorimetric MTT assay. The assay measures the formation of a colored product from a chromogenic precursor, the tetrazole 3-[4,5-dimethylthiazol-2-yl]-2,5 diphenyltetrazolium bromide (MTT). The yellow MTT is reduced to purple formazan in the mitochondria of living cells. A solubilization solution (typically dimethyl sulfoxide or sodium dodecyl sulfate in dilute hydrochloric acid) is added to dissolve the insoluble purple formazan product into a colored solution. The absorbance of this colored solution is quantified by measuring at a certain wavelength (usually between 500 and 600 nm) by a spectrophotometer. The amount of purple formazan product generated is proportional to the number of viable cells (Mosmann, T., 1983, J. Immunol. Meth. 65:55-63; Wilson, A. P., Cytotoxicity and Viability Assays. In: Animal Cell Culture: A Practical Approach, 3rd ed. (Masters, J R W, ed.) Oxford University Press: Oxford, Vol. 1, pp. 175-219. 2000). This MTT assay is used widely to assess the cytotoxicity and selectivity of compounds such as anti-cancer drugs. The assay is suitable for rapid toxicity characterization of a test agent such as a drug formulation. […] A lower CD50 indicates a greater cytotoxic activity (as a lower amount of the agent is needed to achieve a fixed level of cytotoxicity). […]

[2] = tested on: DU145; test: MTT cytotoxicity, DU145 prostate cancer cells; format: cell-based, human; details: for IC50: MTT, read-out: CD50 against DU145
Protocol: As a first step, the antitumor activity of the tolans was assessed against a panel of three cancer cells lines that produce solid tumors upon implantation into animals. DU145 is an androgen-independent prostate cancer cells. T24 is a transitional cell bladder carcinoma cell. MDAH2274 (“MDAH) is an endometroid ovarian adenocarcinoma cell. To assess the selectivity of this antitumor activity, the toxicity of the tolans to normal human fibroblasts (MHRF) was examined. Subsequently, studies with Tolan-3 (KST-201) were expanded to test its action on a wide range of tumor cell lines.
(§2) Cell killing was evaluated using the colorimetric MTT assay. The assay measures the formation of a colored product from a chromogenic precursor, the tetrazole 3-[4,5-dimethylthiazol-2-yl]-2,5 diphenyltetrazolium bromide (MTT). The yellow MTT is reduced to purple formazan in the mitochondria of living cells. A solubilization solution (typically dimethyl sulfoxide or sodium dodecyl sulfate in dilute hydrochloric acid) is added to dissolve the insoluble purple formazan product into a colored solution. The absorbance of this colored solution is quantified by measuring at a certain wavelength (usually between 500 and 600 nm) by a spectrophotometer. The amount of purple formazan product generated is proportional to the number of viable cells (Mosmann, T., 1983, J. Immunol. Meth. 65:55-63; Wilson, A. P., Cytotoxicity and Viability Assays. In: Animal Cell Culture: A Practical Approach, 3rd ed. (Masters, J R W, ed.) Oxford University Press: Oxford, Vol. 1, pp. 175-219. 2000). This MTT assay is used widely to assess the cytotoxicity and selectivity of compounds such as anti-cancer drugs. The assay is suitable for rapid toxicity characterization of a test agent such as a drug formulation. […] A lower CD50 indicates a greater cytotoxic activity (as a lower amount of the agent is needed to achieve a fixed level of cytotoxicity). Two agents can be compared by examining the fold-increase or decrease in their CD50 values.

[3] = tested on: HT29; test: MTT cytotoxicity, HT29 colon; format: cell-based; details: Homo sapiens, HT-29, 72 h; 3 Days; read-out: CD50 (μM) HT29
Protocol: as §1

[4] = tested on: HCT116; test: MTT cytotoxicity, HCT116 colon; format: cell-based; details: Homo sapiens, HCT-116, 72 h; 3 Days; read-out: CD50 (μM) HCT116
Protocol: as §1

[5] = tested on: NCIH460; test: MTT cytotoxicity, NCIH460 lung; format: cell-based; details: Homo sapiens, NCI-H460, 72 h; 3 Days; read-out: CD50 (μM) NCIH460
Protocol: as §1

[6] = tested on: MDAH2274; test: MTT cytotoxicity, MDAH2274 ovarian cancer cells; format: cell-based, human
Protocol: As a first step, the antitumor activity of the tolans was assessed against a panel of three cancer cells lines that produce solid tumors upon implantation into animals. DU145 is an androgen-independent prostate cancer cells. T24 is a transitional cell bladder carcinoma cell. MDAH2274 (“MDAH) is an endometroid ovarian adenocarcinoma cell. To assess the selectivity of this antitumor activity, the toxicity of the tolans to normal human fibroblasts (MHRF) was examined.
as §2, with “The amount of purple formazan product generated is proportional to the number of viable cells (Mosmann, T., 1983, J. Immunol. Meth. 65:55-63; Wilson, A. P., Cytotoxicity and Viability Assays. In: Animal Cell Culture: A Practical Approach, 3rd ed. (Masters, J R W, ed.) Oxford University Press: Oxford, Vol. 1, pp. 175-219. 2000).” left out

[7] = tested on: HSV-1; test: HSV-1 replication in infected Vero cells (plaque assay); format: cell-based, Herpes Simplex Virus-Type 1; details: for IC50: Human alphaherpesvirus 1, Vero, read-out: IC50, concentration at which 50% of HSV-1 replication was inhibited
Protocol: For this purpose HSV-1 replication at 24, 48 and 72 h was examined in the presence or absence of varying concentrations of the polyphenol.
The SI is the ratio of the CD50 divided by a selected inhibitory concentration (IC %).
Viral inhibition by Tolan-3 appeared to occur after viral entry into cells. […] Subsequently, the compound was removed and replaced with culture medium alone, and the incubated continued for 48 or 72 more hrs. In a second experiment, HSV-1 infected Vero cells were incubated with 350 μM Tolan-3 for 48 h. Thereafter, the Tolan-3 was removed and replaced by medium and the incubation continued for an additional 24 h. Viral titers were calculated by a standard plaque assay.

[8] = tested on: MeWo; test: MTT cytotoxicity, MeWo melanoma; format: cell-based; details: Homo sapiens, 72 h, 3 Days, read-out: CD50 (μM) MeWo
Protocol: as §1

[9] = tested on: Mushroom tyrosinase; test: Inhibition of mushroom tyrosinase activity; format: biochemical; details: concentration not given
Protocol: All chemical used for reagents were purchased from Sigma Chemical Company. KST201 at each tested concentration (1000, 250 and 100 μM) was dissolved in 10% ethanol from a master mixture of the drug prepared at 0.1M in 100% ethanol.
Mushroom tyrosinase (Sigma) was diluted in 50 mM phosphate buffer, pH 6.5 to yield a concentration of 16 U/μl. […] A master mix containing 0.5 mM L-DOPA [3,4-dihydroxy-1-phenylalanine], 10 mM Sodium L-tyrosine in 50 mM phosphate buffer, pH 6.5 was prepared. The KST-201 dilutions were preincubated with the enzyme for 20 minutes. The samples were pipetted into 24 well plates and the master mixture added quickly. The reaction was read using a kinetic format in which wells were read every 30 seconds over a course of 10 minutes at a wavelength of 475 nm using a Synergy HT Plate reader. A kinetic curve was generated for each sample compared to a total reaction with mushroom tyrosinase without a drug (total).

[10] = Homo sapiens, DU-145, 24 h, 1 day incubation
[11] = Homo sapiens, DU-145, 48 h, 2 days incubation
[12] = Homo sapiens, DU-145, 72 h, 3 days incubation
[13] = Homo sapiens, 24 h, MTT, 1 day incubation, read-out: CD50 against MDAH, compound tested individually
[14] = Homo sapiens, 48 h, MTT, 2 days incubation, read-out: CD50 against MDAH, compound tested individually
[15] = Homo sapiens, 72 h, MTT, 3 days incubation, read-out: CD50 against MDAH, compound tested individually
[16] = MTT, 1 day incubation, read-out: CD50 against MDAH, compound tested individually

SMILES | IC50 [1] | IC50 [2, 10] | IC50 [2, 11] | IC50 [2, 12] | IC50 ([2]; 1 day incubation) | IC50 [3] | IC50 [4] | IC50 [5] | IC50 [6, 13] | IC50 [6, 14] | IC50 [6, 15] | IC50 [6, 16] | IC50 [7] | IC50 [8] | % inhibition of mushroom tyrosinase activity [9] | also measured
Oc1ccc(C#Cc2ccc(O)cc2)cc1 [KST-201, 4,4′-dihydroxytolan] | 80 ± 0.9 µM | 57 µM | 16.8 ± 0.63 µM | 9.4 µM | 57.3 ± 0.81 µM | 79 ± 0.8 µM | 129 ± 4 µM | 42 ± 2 µM | 22 µM | 10.5 ± 2.7 µM | 3.1 µM | 21.5 ± 7.35 µM | 15.6 µM | 156 ± 2.5 µM | 59.2±13% | Fold more potent against DU145 cells compared to control MHRF fibroblasts [2]: 16 fold; Fold more toxic to DU145 prostate cancer cells than resveratrol ([2]; Table 15 vs Table 14): 3 fold; Fold more potent in killing MDAH2274 cells vs. control MHRF fibroblasts [6]: 50 fold; IC50 ([6]; Homo sapiens, 24 h, VC:KST-201 400:1, 1 day, read-out: CD50 (μM) of each Compound tested in combination, MDAH 2274): 1.16 µM; IC50 ([6]; Homo sapiens, 48 h, VC:KST-201 400:1, 2 days, read-out: CD50 (μM) of each Compound tested in combination, MDAH 2274): 0.97 ± 0.02 µM; IC50 ([6]; Homo sapiens, 72 h, VC:KST-201 400:1, 3 days, read-out: CD50 (μM) of each Compound tested in combination, MDAH 2274): 0.98 µM; IC50 ([6]; MTT, 1 day incubation, listed as Hydroxytolan, read-out: CD50 against MDAH, compound tested individually): 21.5 ± 7.4 µM; IC50 ([6]; MTT, 1 day incubation, listed as hydroxytolan, read-out: CD50 against MDAH, compound tested individually): 21.5 µM; Fold more toxic to MDAH 2274 ovarian cancer cells than resveratrol ([6]; Table 15 vs Table 14): 4.7 fold; Increase of cytotoxic potency in the combination, MDAH 2274 ([6]; VC:KST-201 400:1, 1 day): about 20 fold; SI50 (selectivity index, CD50 divided by IC50) ([7]; 48 h post-infection): 6.8; Effect on HSV-1 viral replication in Vero cells (in words) ([7]; at CD50, 75% and 50% of CD50, 24, 48, 72 h): significant anti-HSV activity
Oc1ccc(/C=C/c2cc(O)cc(O)c2)cc1 [Resveratrol, 3,5,4′-trihydroxy-trans-stilbene, reference compound] | 142 ± 6.4 µM | 92 µM | 58.2 ± 0.4 µM | 28 µM | 92.2 ± 2.9 µM | 163 ± 0.3 µM | 94 ± 0.1 µM | 43 ± 20 µM | 37 µM | 23.1 ± 0.14 µM | 15 µM | 36.9 ± 2.45 µM | 23.4 µM | 185 ± 3.7 µM | 59.9±7.4% | IC50 ([2]; 3 days incubation): 27.9 ± 0.65 µM; IC50 ([6]; MTT, 3 days incubation, read-out: CD50 against MDAH, compound tested individually): 14.6 ± 0.12 µM
